The target of test [1] is T1, FSHR (Homo sapiens, UniProt P23945).
T1 construct: expressed in transfected cells; host or cells: CHO (Cho-FSHR-LUC-1-1-43)
T1 sequence (P23945 18-695): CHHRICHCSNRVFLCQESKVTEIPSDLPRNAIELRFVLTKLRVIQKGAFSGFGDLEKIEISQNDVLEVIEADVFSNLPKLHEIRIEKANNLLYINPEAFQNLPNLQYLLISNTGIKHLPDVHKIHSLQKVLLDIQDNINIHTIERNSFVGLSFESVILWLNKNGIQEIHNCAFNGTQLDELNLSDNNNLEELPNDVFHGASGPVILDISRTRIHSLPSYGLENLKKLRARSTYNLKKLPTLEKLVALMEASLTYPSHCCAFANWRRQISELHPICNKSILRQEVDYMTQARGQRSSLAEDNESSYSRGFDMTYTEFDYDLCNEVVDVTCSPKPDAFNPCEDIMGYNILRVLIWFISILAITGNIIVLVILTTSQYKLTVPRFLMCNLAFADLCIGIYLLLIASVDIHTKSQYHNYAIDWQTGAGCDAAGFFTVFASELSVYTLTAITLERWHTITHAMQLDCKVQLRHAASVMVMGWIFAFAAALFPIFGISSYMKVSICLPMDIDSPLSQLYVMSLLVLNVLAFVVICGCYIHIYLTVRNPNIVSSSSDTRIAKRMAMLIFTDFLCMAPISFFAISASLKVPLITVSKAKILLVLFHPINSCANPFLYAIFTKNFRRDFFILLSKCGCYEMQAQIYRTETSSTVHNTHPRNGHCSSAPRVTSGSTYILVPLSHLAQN
Briefly: EC50 of cyclic AMP production in CHO FSHR cells + EC20 FSH (Assay A). It is filed as cell-based. The note with it: cyclic AMP production in CHO FSHR cells + EC20 FSH (0.265 pM), HTRF. Summed up:
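CHO cells expressing FSHR, stimulated 1 h at 37° C with compound plus EC20 FSH (0.265 pM final) and 200 μM IBMX. cAMP measured by HTRF (665/620 nm ratio) after 1 h at room temperature; effect expressed relative to maximum response of FSH standard.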
A general note: In TR-FRET formats the signal depends on donor and acceptor labels being close together.

Test [2] concerns the target T2, follicle-stimulating hormone (FSH) receptor (Rattus norvegicus, UniProt P20395).
T2 construct: endogenous in cells; host or cells: rat granulosa cells
T2 sequence (P20395 18-692): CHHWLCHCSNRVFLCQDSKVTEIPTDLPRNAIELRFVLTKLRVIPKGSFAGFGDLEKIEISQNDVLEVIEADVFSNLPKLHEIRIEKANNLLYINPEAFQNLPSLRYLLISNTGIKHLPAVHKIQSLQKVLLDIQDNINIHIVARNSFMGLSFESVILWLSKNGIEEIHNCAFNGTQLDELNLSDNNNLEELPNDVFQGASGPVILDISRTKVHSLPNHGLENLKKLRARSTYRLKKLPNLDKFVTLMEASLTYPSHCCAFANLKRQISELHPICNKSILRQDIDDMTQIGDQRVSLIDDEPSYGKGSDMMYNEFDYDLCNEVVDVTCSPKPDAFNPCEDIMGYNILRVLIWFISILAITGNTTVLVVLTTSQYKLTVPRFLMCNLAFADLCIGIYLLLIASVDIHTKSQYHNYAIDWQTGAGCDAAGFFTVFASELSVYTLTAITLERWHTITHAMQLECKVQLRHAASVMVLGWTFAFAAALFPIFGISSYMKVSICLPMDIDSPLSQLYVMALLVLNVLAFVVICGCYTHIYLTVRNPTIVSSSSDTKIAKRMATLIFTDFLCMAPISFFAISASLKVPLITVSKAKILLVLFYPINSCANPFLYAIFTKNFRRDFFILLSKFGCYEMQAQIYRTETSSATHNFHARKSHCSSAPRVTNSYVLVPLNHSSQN
Briefly: Rat granulosa EC50 FSH (Assay B). It is filed as cell-based. How it is done:
Example 25. Rat granulosa EC50 FSH (Assay B)
The assay was performed pursuant to the teaching of Yanofsky et al. (2006) Allosteric activation of the follicle-stimulating hormone (FSH) receptor by selective, nonpeptide agonists (JBC 281(19): 13226-13233, which is incorporated by reference in the disclosure of the invention).

pEC50: −log10 of the molar value. Some results are limits rather than exact numbers.

Turning to `COc1cc2c(cc1-c1ccn(C)n1)-c1c(c(C(=O)N3C[C@H](O)[C@H](O)CC3(C)C)nn1-c1ccsc1)CO2` [Compound 130, ((4R,5S)-4,5-dihydroxy-2,2-dimethylpiperidin-1-yl)(7-methoxy-8-(1-methyl-1H-pyrazol-3-yl)-1-(thiophen-3-yl)-1,4-dihydrochromeno[4,3-c]pyrazol-3-yl)methanone], the pEC50 (in general, the EC50 on a negative log10 scale, so that one unit is a factor of ten) in test [1] is 7.00 to 8.00; in test [2], 6.30 to 7.00.

Regarding `COc1cc(Cl)cc(-n2nc(C(=O)N3CCOCC3(C)C)c3c2-c2cc(-c4cncc(C#N)c4)c(OC)cc2OC3)c1` [Compound 34, 5-(1-(3-chloro-5-methoxyphenyl)-3-(3,3-dimethylmorpholine-4-carbonyl)-7-methoxy-1,4-dihydrochromeno[4,3-c]pyrazol-8-yl)nicotinonitrile], the negative-log EC50 (pEC50) was over 8.00 in test [1] and 7.00 to 8.00 in test [2].

`COC(=O)Cn1nc(C)c(-c2cc3c(cc2OC)OCc2c(C(=O)N(C)C(C)(C)C)nn(-c4cc(Cl)cc(Cl)c4)c2-3)c1C` [Compound 138, methyl 2-(4-(3-(tert-butyl(methyl)carbamoyl)-1-(3,5-dichlorophenyl)-7-methoxy-1,4-dihydrochromeno[4,3-c]pyrazol-8-yl)-3,5-dimethyl-1H-pyrazol-1-yl)acetate]: the results for the negative-log EC50 (pEC50) in test [1] and in test [2] were over 8.00 and 6.30 to 7.00, respectively.

In the case of `COc1cc2c(cc1C1C=NN=C1C)-c1c(c(C(=O)N(C)C(C)(C)C)nn1-c1cc(Cl)cc(Cl)c1)CO2` (centres unmarked) [Compound 141], the results for the pEC50 in test [1] and in test [2] were over 8.00 and 7.00 to 8.00, respectively.

For the molecule `COc1cc2c(cc1-c1cc(C(N)=O)ncc1F)-c1c(c(C(=O)N(C)C(C)(C)C#N)nn1-c1cc(F)cc(F)c1)CO2` [Compound 109, 8-(2-carbamoyl-5-fluoropyridin-4-yl)-N-(2-cyanopropan-2-yl)-1-(3,5-difluorophenyl)-7-methoxy-N-methyl-1,4-dihydrochromeno[4,3-c]pyrazole-3-carboxamide], the figures for the pEC50 in test [1] and in test [2] were over 8.00 and 7.00 to 8.00, respectively.

As for `COc1cc2c(cc1-c1cc(C(N)=O)ncc1F)-c1c(c(C(=O)N(C)C(C)(C)C)nn1-c1cc(Cl)cc(Cl)c1)CO2` [Compound 68, N-tert-butyl-8-(2-carbamoyl-5-fluoropyridin-4-yl)-1-(3,5-dichlorophenyl)-7-methoxy-N-methyl-1,4-dihydrochromeno[4,3-c]pyrazole-3-carboxamide], the results for the negative-log EC50 (pEC50) in test [1] and in test [2] were over 8.00 and 6.30 to 7.00, respectively.

For the molecule `COc1cc(OC)cc(-n2nc(C(=O)N(C)C(C)(C)C)c3c2-c2cc(-c4cncc(C(N)=O)c4)c(OC)cc2OC3)c1` [Compound 160], the negative-log EC50 (pEC50) in test [1] was over 8.00; in test [2] it was 7.00 to 8.00.

Take `COc1cc2c(cc1-c1nn(C)cc1Cl)-c1c(c(C(=O)N3CCOCC3(C)C)nn1-c1cc(F)cc(F)c1)CO2` [Compound 151]: the figures for the negative-log EC50 (pEC50) in test [1] and in test [2] were over 8.00 and 7.00 to 8.00, respectively.

For `COc1cc2c(cc1-c1cccnc1F)-c1c(c(C(=O)N(C)C(C)(C)C)nn1-c1ccsc1)CO2` [Compound 55, N-tert-butyl-8-(2-fluoropyridin-3-yl)-7-methoxy-N-methyl-1-(thiophen-3-yl)-1,4-dihydrochromeno[4,3-c]pyrazole-3-carboxamide], the figures for the pEC50 in test [1] and in test [2] were over 8.00 and 7.00 to 8.00, respectively.

`COc1cc2c(cc1-c1c(C)nn(CC(N)=O)c1C)-c1c(c(C(=O)N(C)C(C)(C)C)nn1-c1cc(Cl)cc(Cl)c1)CO2` [Compound 139, 8-(1-(2-amino-2-oxoethyl)-3,5-dimethyl-1H-pyrazol-4-yl)-N-tert-butyl-1-(3,5-dichlorophenyl)-7-methoxy-N-methyl-1,4-dihydrochromeno[4,3-c]pyrazole-3-carboxamide]: the results for the pEC50 in test [1] and in test [2] were over 8.00 and 7.00 to 8.00, respectively.

On to `COc1cc2c(cc1-c1cc(F)cc(C(N)=O)c1)-c1c(c(C(=O)N(C)C(C)(C)C)nn1-c1cc(Cl)cc(Cl)c1)CO2` [Compound 97, N-tert-butyl-8-(3-carbamoyl-5-fluorophenyl)-1-(3,5-dichlorophenyl)-7-methoxy-N-methyl-1,4-dihydrochromeno[4,3-c]pyrazole-3-carboxamide], for which the pEC50 in test [1] and in test [2] was over 8.00 in each case.

For `COc1cc2c(cc1-c1ccn(C)n1)-c1c(c(C(=O)N3CC[S+]([O-])CC3(C)C)nn1-c1ccsc1)CO2` (centres unmarked) [Compound 56, (1-(thiophen-3-yl)-7-methoxy-8-(1-methyl-1H-pyrazol-3-yl)-1,4-dihydrochromeno[4,3-c]pyrazol-3-yl)(S-oxo-3,3-dimethylthiomorpholino)methanone], the pEC50 in test [1] is 7.00 to 8.00; in test [2], 6.30 to 7.00.

Regarding `COc1cc2c(cc1-c1cncc(C#N)c1)-c1c(c(C(=O)N3CCOCC3(C)C)nn1-c1cc(Cl)cc(Cl)c1)CO2` [Compound 12, 5-(1-(3,5-dichlorophenyl)-3-(3,3-dimethylmorpholine-4-carbonyl)-7-methoxy-1,4-dihydrochromeno[4,3-c]pyrazol-8-yl)nicotinonitrile], the negative-log EC50 (pEC50) in test [1] was over 8.00; in test [2] it was 7.00 to 8.00.

As for `COc1cc2c(cc1-c1cccc(F)c1C#N)-c1c(c(C(=O)N(C)C(C)(C)C)nn1-c1cc(Cl)cc(Cl)c1)CO2` [Compound 25, N-tert-butyl-8-(2-cyano-3-fluorophenyl)-1-(3,5-dichlorophenyl)-7-methoxy-N-methyl-1,4-dihydrochromeno[4,3-c]pyrazole-3-carboxamide], the negative-log EC50 (pEC50) in test [1] is over 8.00; in test [2] it was 7.00 to 8.00.

Take `COc1cc2c(cc1-c1cncc(CO)c1)-c1c(c(C(=O)N(C)C(C)(C)C)nn1-c1cc(Cl)cc(Cl)c1)CO2` [Compound 23, N-tert-butyl-1-(3,5-dichlorophenyl)-8-(5-(hydroxymethyl)pyridin-3-yl)-7-methoxy-N-methyl-1,4-dihydrochromeno[4,3-c]pyrazole-3-carboxamide]: the negative-log EC50 (pEC50) in test [1] was over 8.00; in test [2], 7.00 to 8.00.

As to `COc1cc2c(cc1-c1cccc(C#N)c1F)-c1c(c(C(=O)N(C)C(C)(C)C)nn1-c1cc(Cl)cc(Cl)c1)CO2` [Compound 19, N-tert-butyl-8-(3-cyano-2-fluorophenyl)-1-(3,5-dichlorophenyl)-7-methoxy-N-methyl-1,4-dihydrochromeno[4,3-c]pyrazole-3-carboxamide], the values for the pEC50 in test [1] and in test [2] were over 8.00 and 6.30 to 7.00, respectively.

Consider `COc1cc2c(cc1-c1cncc(CO)c1)-c1c(c(C(=O)N(C)C(C)(C)C#N)nn1-c1cc(Cl)cc(Cl)c1)CO2` [Compound 108, N-(2-cyanopropan-2-yl)-1-(3,5-dichlorophenyl)-8-(5-(hydroxymethyl)pyridin-3-yl)-7-methoxy-N-methyl-1,4-dihydrochromeno[4,3-c]pyrazole-3-carboxamide], for which the negative logarithm of the EC50 (pEC50) in test [1] is over 8.00; in test [2] it was 7.00 to 8.00.

Regarding `COc1cc2c(cc1-c1cc(C(N)=O)ccc1F)-c1c(c(C(=O)N(C)C(C)(C)C)nn1-c1cc(Cl)cc(Cl)c1)CO2` [Compound 93, N-tert-butyl-8-(5-carbamoyl-2-fluorophenyl)-1-(3,5-dichlorophenyl)-7-methoxy-N-methyl-1,4-dihydrochromeno[4,3-c]pyrazole-3-carboxamide], the figures for the negative-log EC50 (pEC50) in test [1] and in test [2] were over 8.00 and 7.00 to 8.00, respectively.

Regarding `COc1cc(OC)cc(-n2nc(C(=O)N(C)C(C)(C)C)c3c2-c2cc(-c4ccccn4)c(OC)cc2OC3)c1` [Compound 46, N-tert-butyl-1-(3,5-dimethoxyphenyl)-7-methoxy-N-methyl-8-(pyridin-2-yl)-1,4-dihydrochromeno[4,3-c]pyrazole-3-carboxamide], the pEC50 in test [1] is 7.00 to 8.00; in test [2], 6.30 to 7.00.

(Values after patent US10941152B2, “Pyrazole compounds as modulators of FSHR and uses thereof” (TOCOPHERX, INC., priority 2014, dated 2021).)
